The record followed here is ChEMBL document CHEMBL2094195, “Structure-activity relationship data for a series of N-(phenylmehtyl)-2-(1H-pyrazol-4-yl)acetamide and N-(phenylmethyl)2-(4-isoxazolyl) acetamide antagonists of the P2X7 receptor (Supplementary Bioactivity Data for publication CHEMBL1157114)”.

Structures are written as SMILES.

The assay has as its target T1, P2X purinoceptor 7 (Homo sapiens, UniProt Q99572).
T1 sequence (Q99572 whole entry): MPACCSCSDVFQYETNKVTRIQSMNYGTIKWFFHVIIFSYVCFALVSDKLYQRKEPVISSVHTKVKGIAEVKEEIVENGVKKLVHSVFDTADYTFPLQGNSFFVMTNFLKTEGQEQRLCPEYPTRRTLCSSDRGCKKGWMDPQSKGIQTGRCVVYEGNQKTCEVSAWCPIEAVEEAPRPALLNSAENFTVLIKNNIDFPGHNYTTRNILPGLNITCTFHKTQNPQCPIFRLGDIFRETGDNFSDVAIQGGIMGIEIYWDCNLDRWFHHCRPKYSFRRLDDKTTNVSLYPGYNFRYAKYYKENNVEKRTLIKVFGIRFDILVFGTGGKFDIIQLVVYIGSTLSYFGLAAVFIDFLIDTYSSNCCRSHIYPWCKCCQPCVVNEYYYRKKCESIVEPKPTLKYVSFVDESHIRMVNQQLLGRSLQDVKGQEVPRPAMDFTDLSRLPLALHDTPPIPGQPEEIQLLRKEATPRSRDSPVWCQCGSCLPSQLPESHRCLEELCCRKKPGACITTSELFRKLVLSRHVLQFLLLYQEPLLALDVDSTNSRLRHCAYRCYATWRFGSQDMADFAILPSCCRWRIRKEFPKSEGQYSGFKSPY
Nature of the assay: SUPPLEMENTARY: Inhibition of human P2X7 receptor assessed as inhibition of ethidium bromide accumulation. Same assay as CHEMBL1103860.
The IC50 is the point on the concentration scale where inhibition reaches its midpoint. For `Cc1n[nH]c(C)c1CC(=O)N[C@H]1CCCc2ccccc21`, the half-maximal inhibitory concentration (IC50) was 100 nM.

For the compound `Cc1n[nH]c(C)c1CC(=O)NCc1ccc(F)c(F)c1F`, the IC50 is 63.1 nM.

Take `Cc1n[nH]c(C)c1CC(=O)NCc1ccccc1Br`: the IC50 is 251 nM.

Turning to `Cc1n[nH]c(C)c1CC(=O)NCc1ccc(Cl)c(Cl)c1`, the IC50 was 200 nM.

For `Cc1n[nH]c(C)c1CC(=O)NCc1cc(Cl)cc(Cl)c1`, the IC50 was 1000 nM.

Regarding `Cc1n[nH]c(C)c1CC(=O)NCc1c(Cl)cccc1Cl`, the IC50 was 31.6 nM.

As for `Cc1cccc(Cl)c1CNC(=O)Cc1c(C)n[nH]c1C`, the IC50 is 15.8 nM.

`Cc1n[nH]c(C)c1CC(=O)NCc1cc(F)ccc1Cl`: the IC50 was 398 nM.

In the case of `Cc1[nH]nc(C(C)(C)C)c1CC(=O)NCc1ccc(F)cc1Cl`, the IC50 was 158 nM.

For `Cc1noc(C)c1CC(=O)NCc1ccc(F)c(F)c1F`, the IC50 was 158 nM.

For the compound `Cc1n[nH]c(C)c1CC(=O)NCc1cccc(Cl)c1C`, the IC50 was 5.01 nM.

For the compound `Cc1n[nH]c(C)c1CC(=O)NCc1c(F)cccc1Cl`, the IC50 was 158 nM.

For the compound `Cc1n[nH]c(C)c1CC(=O)NCc1cc(Cl)ccc1Cl`, the IC50 was 316 nM.

Turning to `Cc1cccc(Cl)c1CNC(=O)Cc1c(C)noc1C`, the IC50 was 25.1 nM.

As to `Cc1noc(C)c1CC(=O)NCc1cccc(Cl)c1C`, the IC50 was 25.1 nM.

As to `Cc1noc(C)c1CC(=O)NCc1ccc(Cl)c(Cl)c1`, the IC50 is 316 nM.

In the case of `Cc1noc(C)c1CC(=O)NCc1ccccc1Br`, the IC50 is 501 nM.

In the case of `Cc1noc(C)c1CC(=O)NCc1ccccc1Cl`, the IC50 is 100 nM.

`Cc1noc(C)c1CC(=O)NCc1c(F)cccc1Cl`: the IC50 is 398 nM.

For `Cc1noc(C)c1CC(=O)NCc1c(Cl)cccc1Cl`, the IC50 was 63.1 nM.

For `Cc1noc(C)c1CC(=O)NCc1ccc(Cl)c(C(F)(F)F)c1`, the IC50 was 158 nM.

On to `Cc1noc(C)c1CC(=O)NCc1ccc(F)cc1C(F)(F)F`, for which the IC50 is 200 nM.

As for `Cc1n[nH]c(C)c1CC(=O)NCc1ccc(C(F)(F)F)cc1`, the IC50 was 398 nM.

In the case of `Cc1noc(C)c1CC(=O)NCc1ccc(F)cc1Br`, the IC50 was 50.1 nM.

Consider `Cc1noc(C)c1CC(=O)NCc1ccc(F)c(F)c1Cl`, for which the IC50 was 31.6 nM.

Consider `Cc1ccccc1CNC(=O)Cc1c(C)noc1C`, for which the IC50 is 501 nM.

With `Cc1noc(C)c1CC(=O)NCc1cccc(Cl)c1Cl`, the IC50 is 31.6 nM.

For the compound `Cc1noc(C)c1CC(=O)NCc1ccc(F)cc1F`, the IC50 is 501 nM.

With `Cc1ccc(CNC(=O)Cc2c(C)n[nH]c2C)c(C)c1`, the IC50 is 158 nM.

Turning to `Cc1ccc(F)c(CNC(=O)Cc2c(C)n[nH]c2C)c1Cl`, the IC50 is 79.4 nM.

Consider `Cc1n[nH]c(C)c1CC(=O)NCc1ccc(Br)cc1F`, for which the IC50 was 50.1 nM.

On to `Cc1noc(C)c1CC(=O)NCc1ccc(Cl)cc1`, for which the IC50 was 794 nM.

Regarding `Cc1ccc(CNC(=O)Cc2c(C)noc2C)c(C)c1`, the IC50 is 251 nM.

As for `Cc1ccc(Cl)c(CNC(=O)Cc2c(C)n[nH]c2C)c1F`, the IC50 was 631 nM.

As to `Cc1ccc(CNC(=O)Cc2c(C)noc2C)c(F)c1F`, the IC50 was 794 nM.

For the compound `Cc1cc(Cl)ccc1CNC(=O)Cc1c(C)noc1C`, the IC50 was 25.1 nM.

For `Cc1cc(F)ccc1CNC(=O)Cc1c(C)noc1C`, the IC50 was 100 nM.

On to `Cc1noc(C)c1CC(=O)NCc1cccc(F)c1C`, for which the IC50 is 1000 nM.

Regarding `Cc1ccc(CNC(=O)Cc2c(C)noc2C)c(F)c1`, the IC50 was 158 nM.

In the case of `Cc1cccc(CNC(=O)Cc2c(C)noc2C)c1C`, the concentration for half-maximal inhibition (IC50) is 200 nM.

On to `Cc1ccc(F)c(CNC(=O)Cc2c(C)noc2C)c1Cl`, for which the IC50 was 200 nM.

In the case of `Cc1ccccc1CNC(=O)Cc1c(C)n[nH]c1C`, the IC50 is 158 nM.

For the compound `Cc1noc(C)c1CC(=O)NCc1ccc(C(F)(F)F)c(F)c1`, the IC50 is 398 nM.

In the case of `Cc1noc(C)c1CC(=O)NCc1cccc(C(F)(F)F)c1F`, the IC50 is 31.6 nM.

Turning to `Cc1noc(C)c1CC(=O)NCc1cccc(Cl)c1F`, the IC50 was 200 nM.

Take `Cc1noc(C)c1CC(=O)NCc1ccc(F)c(Cl)c1F`: the IC50 is 39.8 nM.

Take `Cc1noc(C)c1CC(=O)NCc1cccc(C(F)(F)F)c1C`: the IC50 is 10 nM.

On to `CCc1noc(CC)c1CC(=O)NCc1ccc(F)cc1Cl`, for which the IC50 is 39.8 nM.

Take `CC(C)c1noc(C(C)C)c1CC(=O)NCc1ccc(F)cc1Cl`: the IC50 is 158 nM.

In the case of `CCc1n[nH]c(CC)c1CC(=O)NCc1ccc(F)c(F)c1F`, the IC50 is 31.6 nM.

Take `CC(C)c1n[nH]c(C(C)C)c1CC(=O)NCc1ccc(F)c(F)c1F`: the IC50 was 158 nM.

In the case of `Cc1n[nH]c(C(F)(F)F)c1CC(=O)NCc1cccc(C(F)(F)F)c1Cl`, the IC50 was 2.51 nM.

For `Cc1n[nH]c(C(F)(F)F)c1CC(=O)NCc1ccc(F)c(F)c1Cl`, the IC50 was 5.01 nM.

In the case of `Cc1n[nH]c(C)c1CC(=O)NCc1ccc(F)c(C(F)(F)F)c1`, the IC50 was 50.1 nM.
